Measured values as given in PubChem BioAssay (NCI).
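These data come from cells grown in 96-well plates and exposed to compound for 48 hours at five concentrations. TGI: concentration producing complete growth inhibition.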

Tests used:
Test in all cases: inhibition of tumour cell growth, NCI panel, 48 h
[1] = tested on: A549 NSCLC
[2] = tested on: MOLT-4 leukemia
[3] = tested on: DLD-1 colon
[4] = tested on: DMS 273 small cell lung
[5] = tested on: HCC-2998 colon
[6] = tested on: HOP-18 NSCLC
[7] = tested on: NCI-H23 lung
[8] = tested on: SW-620 colon
[9] = tested on: SF-268 CNS
[10] = tested on: K-562 leukemia
[11] = tested on: SF-295 CNS
[12] = tested on: LOX IMVI melanoma
[13] = tested on: KM12 colon
[14] = tested on: MALME-3M melanoma
[15] = tested on: HL-60(TB) leukemia
[16] = tested on: SF-539 CNS
[17] = tested on: IGROV1 ovarian
[18] = tested on: HCT-116 colon
[19] = tested on: UO-31 renal
[20] = tested on: 786-0 renal
[21] = tested on: SNB-19 CNS
[22] = tested on: RPMI-8226 leukemia
[23] = tested on: UACC-257 melanoma
[24] = tested on: HOP-62 NSCLC
[25] = tested on: RXF 393 renal
[26] = tested on: HT29 colon
[27] = tested on: SNB-78 CNS
[28] = tested on: SK-MEL-2 melanoma
[29] = tested on: OVCAR-5 ovarian
[30] = tested on: NCI-H522 lung
[31] = tested on: NCI-H460 lung
[32] = tested on: CAKI-1 renal
[33] = tested on: SNB-75 CNS
[34] = tested on: OVCAR-8 ovarian
[35] = tested on: CCRF-CEM leukemia
[36] = tested on: KM20L2 colon
[37] = tested on: OVCAR-4 ovarian
[38] = tested on: TK-10 renal
[39] = tested on: LXFL 529 NSCLC
[40] = tested on: DMS 114 small cell lung
[41] = tested on: U251 CNS
[42] = tested on: SN12C renal
[43] = tested on: SK-MEL-28 melanoma
[44] = tested on: COLO 205 colon
[45] = tested on: M14 melanoma
[46] = tested on: OVCAR-3 ovarian
[47] = tested on: UACC-62 melanoma
[48] = tested on: XF 498 CNS
[49] = tested on: NCI-H226 lung
[50] = tested on: SK-OV-3 ovarian
[51] = tested on: EKVX NSCLC
[52] = tested on: M19-MEL melanoma
[53] = tested on: ACHN renal
[54] = tested on: SK-MEL-5 melanoma
[55] = tested on: HCT-15 colon
[56] = tested on: SR leukemia
[57] = tested on: HOP-92 NSCLC

`CCCCCCCCCC(=O)CC(=O)c1c(O)cccc1O` showed a TGI [1] of 96.1 µM, a TGI [2] of over 100 µM and a TGI [3] of over 100 µM. For the same compound, the TGI [4] was 39.1 µM, the TGI [5] was over 100 µM and the TGI [6] was 93.6 µM. For the same compound, the TGI [7] was over 100 µM, the TGI [8] was 83.2 µM and the TGI [9] was over 100 µM. For the same compound, the TGI [10] was 86 µM, the TGI [11] was 98.2 µM and the TGI [12] was 49.6 µM. For the same compound, the TGI [13] was over 100 µM, the TGI [14] was 74.4 µM and the TGI [15] was 45.3 µM. For the same compound, the TGI [16] was over 100 µM, the TGI [17] was over 100 µM and the TGI [18] was over 100 µM. The TGI [19] was over 100 µM, the TGI [20] was 35.3 µM and the TGI [21] was over 100 µM. For the same compound, the TGI [22] was 61.2 µM, the TGI [23] was over 100 µM and the TGI [24] was over 100 µM. The TGI [25] was 72.1 µM, the TGI [26] was 65.8 µM and the TGI [27] was over 100 µM. The TGI [28] was 67 µM, the TGI [29] was 64 µM and the TGI [30] was 89.7 µM. The TGI [31] was over 100 µM, the TGI [32] was over 100 µM and the TGI [33] was 99.7 µM. It also gave a TGI [34] of over 100 µM, a TGI [35] of 61 µM and a TGI [36] of over 100 µM. It also gave a TGI [37] of over 100 µM, a TGI [38] of over 100 µM and a TGI [39] of over 100 µM. The TGI [40] was 89.5 µM, the TGI [41] was 69.3 µM and the TGI [42] was 53.4 µM. For the same compound, the TGI [43] was over 100 µM, the TGI [44] was 35.8 µM and the TGI [45] was 72.1 µM. It also gave a TGI [46] of 80.9 µM, a TGI [47] of over 100 µM and a TGI [48] of 40 µM. For the same compound, the TGI [49] was 70.2 µM, the TGI [50] was 64.1 µM and the TGI [51] was 86.9 µM. For the same compound, the TGI [52] was over 100 µM and the TGI [53] was 83.4 µM.

Work on `COC(=O)C1=C(C(=O)OC)C2(C(=O)OC)OC1(OC)C(C1(C(=O)OC)C(C(=O)OC)=C1C(=O)OC)=C2C(=O)OC` (stereo not drawn) yielded a TGI [1] of over 100 µM, a TGI [2] of over 100 µM and a TGI [54] of over 100 µM. It also gave a TGI [3] of over 100 µM, a TGI [55] of over 100 µM and a TGI [4] of over 100 µM. It also gave a TGI [5] of over 100 µM, a TGI [6] of over 100 µM and a TGI [7] of over 100 µM. The TGI [8] was over 100 µM, the TGI [9] was over 100 µM and the TGI [10] was over 100 µM. The TGI [11] was over 100 µM, the TGI [56] was over 100 µM and the TGI [12] was over 100 µM. The TGI [13] was over 100 µM, the TGI [14] was over 100 µM and the TGI [15] was over 100 µM. For the same compound, the TGI [16] was over 100 µM, the TGI [17] was over 100 µM and the TGI [18] was over 100 µM. For the same compound, the TGI [19] was over 100 µM, the TGI [20] was over 100 µM and the TGI [21] was over 100 µM. The TGI [22] was over 100 µM, the TGI [23] was over 100 µM and the TGI [24] was over 100 µM. For the same compound, the TGI [25] was over 100 µM, the TGI [26] was over 100 µM and the TGI [27] was over 100 µM. The TGI [57] was over 100 µM, the TGI [28] was over 100 µM and the TGI [29] was over 100 µM. It also gave a TGI [30] of over 100 µM, a TGI [31] of over 100 µM and a TGI [33] of over 100 µM. For the same compound, the TGI [34] was over 100 µM, the TGI [35] was over 100 µM and the TGI [36] was over 100 µM. For the same compound, the TGI [38] was over 100 µM, the TGI [39] was over 100 µM and the TGI [40] was over 100 µM. For the same compound, the TGI [41] was over 100 µM, the TGI [42] was over 100 µM and the TGI [43] was over 100 µM. For the same compound, the TGI [44] was over 100 µM, the TGI [45] was over 100 µM and the TGI [46] was over 100 µM. The TGI [47] was over 100 µM, the TGI [48] was over 100 µM and the TGI [49] was over 100 µM. It also gave a TGI [50] of over 100 µM, a TGI [51] of over 100 µM and a TGI [52] of over 100 µM. It also gave a TGI [53] of over 100 µM.
